Source: patent US20250388605A1, “HETEROBIFUNCTIONAL COMPOUNDS AND METHODS OF TREATING DISEASE” (Halda Therapeutics OpCo, Inc., priority 2022, published 2025)
pKd: −log10 of the molar value.

Legend:
BRD4-BD1 = target: T1, BRD4-BD1 (Homo sapiens, UniProt O60885); assay: Binding affinity to BRD4-BD1 (bromoKdELECT assay); details: 11-point 3-fold dilution series
T1 construct: made in house; host or cells: T7 phage grown in an E. coli host derived from the BL21 strain

T47D cells = assay: Cellular Growth Inhibition Assay for T47D Cells (CellTiter-Glo); assay type: cell-based, human; details: 72 hours
Outline: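 GI50 values derive from four-parameter regression of CellTiter-Glo 2.0 luminescence, using zero luminescence as baseline. Human breast cancer T47D cells (3000/well; DMEM, 10% FBS, 0.2 units/mL insulin) were exposed for 72 h to compound dilutions at 0.5% DMSO, with dosing starting 24 h after seeding.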

[1] = system: T-Rex 293 cell line SC cells lacking increased expression of progesterone receptor isoform B protein; assay: Cellular growth inhibition assay, T-Rex 293 SC cells not exposed to doxycycline (no increased progesterone receptor isoform B expression), CellTiter-Glo; assay type: cell-based; details: T-Rex 293 SC cells without doxycycline (no increased PR isoform B), 72 hours
Experimental: The SC cells were seeded on poly-D-lysine coated, black clear-bottom 384-well plates at 2500/well, in 25 μL Phenol Red Free Dulbecco's Modified Eagle Medium (DMEM) supplemented with 10% w/w charcoal-dextran treated fetal bovine serum (FBS) and 1% w/w pen-strep, with or without 10 ng/mL doxycycline. Pen-Strep is a commercially available mixture of penicillin G and streptomycin, which is used in mammalian cell culture media to prevent bacterial contamination. Phenol Red Free Dulbecco's Modified Eagle Medium (DMEM) supplemented with 10% w/w charcoal-dextran treated fetal bovine serum (FBS) and 1% w/w pen-strep, with or without 10 ng/mL doxycycline is herein referred to as Treatment Medium. Following seeding of cells in the plates, the plates were spun at 300×g for 30 seconds, then equilibrated to room temperature for 30 minutes, and then deposited in a humidified tissue culture incubator maintained at 37° C. with 5% CO2.
At 24 hours after seeding of the cells, dilutions of test compound were prepared in DMSO and dissolved in Treatment Medium, to achieve a final DMSO concentration of 0.5% w/w, thereby providing the Test Compound Solution. A 25 μL aliquot of the Test Compound Solution was added to cells in the well plates. An equal volume of a solution containing DMSO and Treatment Medium was used as a negative control. Following treatment of cells with Test Compound Solution or said equal volume of a solution containing DMSO and Treatment Medium, the plates were spun at 300×g for 30 seconds, and then left in an incubator for 72 hours.
At the end of the treatment duration, cell viability was quantified with CellTiter-Glo 2.0 reagent (Promega Cat #G9243). For this purpose, plates were equilibrated to room temperature for 30 minutes, and then 25 μL of CellTiter-Glo 2.0 reagent was added to cells in the plate wells. Plates were then agitated on a shaker for two minutes at 500 rpm and subsequently incubated at room temperature for 10 minutes. Following incubation, the plates were spun at 3000×g for 30 seconds, then sealed with an optical adhesive cover, and luminescence readings were measured with an EnVision Plate Reader (Perkin Elmer).
Data was normalized using zero luminescence for baseline. A four-parameter non-linear regression curve fit was applied to dose-response data in GraphPad Prism data analysis software to determine the half-maximal growth inhibitory concentration (GI50) for each test compound.

Compound	pKd (BRD4-BD1)	GI50 (T47D cells; Homo sapiens) [nM]	GI50 (T47D cells) [nM]	GI50 [1] [nM]
Cn1cc(-c2cc(C(C)(C)O)ccc2Oc2cccc(N3CC(N4CCN(c5ncc(C(=O)N[C@H]6C(C)(C)[C@H](Oc7ccc(C#N)c(Cl)c7)C6(C)C)cn5)CC4)C3)c2F)c2cc[nH]c2c1=O [Compound I-92, N-((1r, 3r)-3-(3-chloro-4-cyanophenoxy)-2,2,4,4-tetramethylcyclobutyl)-2-(4-(1-(2-fluoro-3-(4-(2-hydroxypropan-2-yl)-2-(6-methyl-7-oxo-6,7-dihydro-1H-pyrrolo[2,3-c]pyridin-4-yl)phenoxy)phenyl)azetidin-3-yl)piperazin-1-yl)pyrimidine-5-carboxamide]	6.30 to 7.30	< 500	–	< 500
CCS(=O)(=O)Nc1ccc(Oc2ccc(OCC3CCN(c4ncc(C(=O)N[C@H]5C(C)(C)[C@H](Oc6ccc(C#N)c(Cl)c6)C5(C)C)cn4)CC3)cc2)c(-c2cn(C)c(=O)c3[nH]ccc23)c1 [Compound I-138]	< 5.60	–	< 500	< 500
Cn1cc(-c2cc(C(C)(C)O)ccc2Oc2cccc(N3CC(OC4CCN(c5ncc(C(=O)N[C@H]6C(C)(C)[C@H](Oc7ccc(C#N)c(Cl)c7)C6(C)C)cn5)CC4)C3)c2F)c2cc[nH]c2c1=O [Compound I-190]	5.60 to 6.30	–	500 to 1500	< 500
Cc1ccc(CCCOC2CCN(c3ncc(C(=O)N[C@H]4C(C)(C)[C@H](Oc5ccc(C#N)c(Cl)c5)C4(C)C)cn3)CC2)c(C)c1Oc1ccc(C(C)(C)O)cc1-c1cn(C)c(=O)c2[nH]ccc12 [Compound I-195]	< 5.60	500 to 1500	–	> 3000

Second part, led by results:

pKd (BRD4-BD1)	GI50 (T47D cells; Homo sapiens) [nM]	GI50 (T47D cells) [nM]	Compound	GI50 [1] [nM]
6.30 to 7.30	–	500 to 1500	Cn1cc(-c2cc(C(C)(C)O)ccc2Oc2cccc(N3CC(CC4CCN(c5ncc(C(=O)N[C@H]6C(C)(C)[C@H](Oc7ccc(C#N)c(Cl)c7)C6(C)C)cn5)CC4)C3)c2F)c2cc[nH]c2c1=O [Compound I-196]	> 3000
6.30 to 7.30	< 500	–	CN(c1ccc(Oc2ccc(C(C)(C)O)cc2-c2cn(C)c(=O)c3[nH]ccc23)cc1)C1CCN(c2ncc(C(=O)N[C@H]3C(C)(C)[C@H](Oc4ccc(C#N)c(Cl)c4)C3(C)C)cn2)CC1 [Compound I-197]	< 500
< 5.60	500 to 1500	–	Cn1cc(-c2cc(C(C)(C)O)ccc2Oc2ccc(CCC3CCN(c4ncc(C(=O)N[C@H]5C(C)(C)[C@H](Oc6ccc(C#N)c(Cl)c6)C5(C)C)cn4)CC3)cc2)c2cc[nH]c2c1=O [Compound I-203]	> 3000
> 7.30	< 500	–	Cn1cc(-c2cc(C(C)(C)O)ccc2Oc2ccc(N3CC(CN4CC5CC4CN5c4ncc(C(=O)N[C@H]5C(C)(C)[C@H](Oc6ccc(C#N)c(Cl)c6)C5(C)C)cn4)C3)cc2)c2cc[nH]c2c1=O (stereo partly drawn) [Compound I-228]	< 500
